Assay results taken from patent US20080299222A1, “Bioactive agrichemical compositions and use thereof” (priority 2007, published 2008).

Test system: E. amylovora 153N
Assay: Fire blight on Snow Drift crabapple trees (Example 287)
Format: in vivo, Erwinia amylovora
Details: rate 5 lbs/a (2.27 kg/a), mean of the counts, 100 blossoms per subplot
Experimental: A study of the bioefficacy of the various agrichemical compositions, including bioactive acid solutions and blends thereof with an antibiotic agrichemical, were evaluated to assess their bioefficacy against fire blight on crabapples. The study was conducted on 5 year old Snow Drift crabapple trees, with each of the compositions being applied to ten trees in two-subplots of five trees, four different times: at 100% bloom—day 1, a second application was made on day 4, a third on day 11 and a final treatment on day 19. The trees were inoculated with E. amylovora 153N at a concentration of 4×10^6 cells per milliliter on day 1, following drying of the treatment, with the inoculation being repeated on day 13. Evaluation for fire blight was completed on 100 blossoms for each of the subplots on day 12, day 19 and day 27. Additionally, the incidence of shoot infection and the length of cankers were evaluated on day 63.
The test compositions were prepared by forming solutions of the bioactive agents. Two different dilutions of the MI2 bioactive were evaluated; the first employing 94.46 ml/gallon (25 ml/l) of water (5 ppm of each metal) and the second 188.9 ml/gallon (50 ml/l) of water (10 ppm of each metal). A streptomycin product (17% concentrated) was diluted at a rate of 0.049 lbs/gallon ([…]) (200 ppm). Finally, copper hydroxide was diluted at a rate of 1 lb/gallon (119.8 g/l). Each of the compositions and blends were spray applied at a rate of 50 gallons (189.3 l) pre acre. The results are presented as the mean of the counts.

## [Cu+2].[OH-].[OH-] [copper hydroxide]
Day 12
  Blossom Incidence: 3.1
Day 19
  Blossom Incidence: 2.2
Day 27
  Blossom Incidence: 9.0
